Data as given in patent publication US20220288151A1, “COMPOSITIONS AND METHODS FOR TREATING NEUROLOGICAL DISEASES” (CARMEL HAIFA UNIVERSITY ECONOMIC CORPORATION LTD., priority 2019, published 2022).

What was measured:
[1] = test system: eEF2 (pThr56eEF2); assay: Western blot of pThr56eEF2, eEF2 and tubulin in DG and cortex samples after ketamine i.p. injection; type: in vivo, mice; settings: 30 min after injection; for pThr56eEF2 normalized to total eEF2 in DG lysates: dentate gyrus
Protocol: Mouse brains were quickly excised and snap frozen immediately in liquid nitrogen, and then transferred to −80° C. for later use. The brains were kept in the cryostat cabin for 15 min at −15° C. before starting tissue punching. Four 500 μm thick coronal sections were sliced slowly, and the DG and cortex tissues from both hemispheres were collected by a mouse tissue puncher. The DG and cortex tissues were transferred to a new tubes and kept immediately on dry ice and then transferred to −80° C. until further use. Brain tissues were homogenized in 100 μl of ice-cold homogenization buffer (HEPES 10 mM pH 7.4, EDTA 2 mM pH 7.4, EGTA 2 mM pH 7.4, DTT 0.5 mM (all from Sigma-Aldrich, Rehovot, Israel), 1× protease inhibitor mixture (Sigma-Aldrich Rehovot, Israel); and 1× phosphatase inhibitor mixture (Sigma-Aldrich)). Protein concentration was determined by a BCA kit (CYANAGEN, PRTD1, 0500). Protein Samples were prepared in SDS sample buffer (22.22% glycerol, 22.22% SDS (20% stock), 26.66% (0.5 M Tris PH 6.8), rest DDW) and β-Mercaptoethanol, then were boiled in 100° C. for 5 min. Each sample was divided to 3 aliquots. Each aliquot was thawed on ice and used for blotting only once or twice. The samples were subjected to 10% or 12% gel SDS-PAGE (electrophoresed on Bio-Rad PAGE apparatus) and Western blot analysis. Each sample was loaded with the same amount of total protein (8-12 μg; according to antibody linearity). After transfer to a […] pore size nitrocellulose membrane or PVDF membrane, the blots were blocked with 5% bovine serum albumin (BSA) or non-fat dry milk (blotting-grade blocker, Bio-Rad) in Tris-buffered saline plus 0.5% tween-20 (TBST) at room temperature for 1 hr. The blots were incubated overnight with the suitable primary antibodies. The blots were then subjected to three 5 min washing steps in TBST, after which they were incubated with the corresponding HRP-conjugated secondary antibodies for 1 h at room temperature followed by three 10 min washing steps with TBST. Immunodetection was performed with the enhanced-chemiluminescence EZ-ECL kit (Biological Industries, Israel). The immunoblots were quantified with a CCD camera and Quantity One software (Bio-Rad).
For all tested proteins, polyacrylamide gels were freshly prepared and used on the same day. Polyacrylamide gels (10%, Tris pH 8.8) were used to analyze the expression of eEF2, pThr56eEF2, vimentin, decorin, AMPK, pThr172AMPK, KIFSA, ERK2, pERK2, pS6K1, S6K1 and tubulin. In addition, criterion gels (BIO-RAD) were used to analyze the expression of NSF protein in the different fractions. Samples containing 10 μg protein were loaded for the detection of each protein. Samples containing 8 μg protein were loaded for ERK and pERK and […] for S6K1 and pS6K1. Each immunoblot was measured relative to the background and normalized to the endogenous control (tubulin), taken from the same gel. Mature-BDNF was analyzed using 12% (Tris pH 8.8) polyacrylamide gel and was measured relative to the background and normalized to tubulin from the same gel. Samples containing 12 μg protein were loaded for mature-BDNF. The phoshpo-protein was normalized to tubulin taken from the same gel as well.

[2] = test system: WT mice; assay: Forced swim test; type: in vivo; settings: WT naive mice, ketamine 5 mg/kg i.p., 30 min before test, vs saline; last 4 min scored
Protocol: WT mice were injected with ketamine 5 mg/kg or saline i.p., and 30 min later together with the CaMKII Cre/GFP-injected mice were all subjected to the forced swim test (FST). The mice were placed in a 5-liter transparent glass beaker containing 4-liter warm water at 24° C. The mice were video recorded for 6 min. The last 4 min were manually scored for immobility. Total immobility time (in seconds) is presented in the results.

[3] = Body weight during TMZ/vehicle i.p. injection protocol; type: in vivo; settings: mice given TMZ or vehicle i.p. on three consecutive days per week for four weeks
Protocol: The enriched environment (groups 2 and 3) included a running wheel, two different objects, small ball, a short plastic tube, bedding, and a nest. Control animals (groups 1 and 4) were in standard cages including bedding and nest. In both conditions, three mice were housed per cage for four weeks. The mice received a TMZ/vehicle i.p. injection three times a week. On day 29, the mice received a BrdU i.p. injection and were perfused 24 h later for IHC analysis. For neurogenesis suppression, TMZ was dissolved in DMSO at 25 mg/ml and diluted to 1.25 mg/ml in sterile saline. The mice were given i.p. injections of saline +5% DMSO (vehicle) or TMZ on three consecutive days followed by four days with no injection for four weeks. On the last week, BrdU was given i.p. in 0.9% NaCl at 200 mg/kg body weight.
Sixteen (16) eEF2K double foxed mice were injected with CaMKII-Cre and GFP viruses to the DG and 3 weeks following virus injection were injected i.p TMZ and vehicle. TMZ was dissolved in DMSO at 25 mg/ml and diluted to 1.25 mg/ml in sterile saline. The mice were given i.p. injections of saline +5% DMSO (vehicle) or TMZ on three consecutive days followed by four days with no injection for four weeks. On the last week, BrdU was given i.p. in 0.9% NaCl at 200 mg/kg body weight. […]

[4] = ketamine 5 mg/kg i.p. vs control, cortex
[5] = ketamine 5 mg/kg i.p. vs saline

Row | Structure (SMILES) | eEF2 protein level normalized to tubulin in cortex tissue [1, 4] | pT56eEF2 normalized to eEF2 protein in cortex tissue [1, 4] | eEF2 protein levels normalized to tubulin (DG samples) [1, 5] | pThr56eEF2 normalized to total eEF2 in DG lysates [1, 5] | pThr56eEF2 normalized to total eEF2 in DG lysates ([1]; ketamine 5 mg/kg i.p. vs saline, listed as Ketamine) | immobility time in forced swim test [2] | body weight throughout the experiment [3]
1 | CNC1(c2ccccc2Cl)CCCCC1=O (stereo not shown) [ketamine] | no change in eEF2 protein level | reduces pT56eEF2 levels | no change in eEF2 protein levels | peEF2 levels were reduced | induces eEF2 dephosphorylation | significantly lower immobility time | 
2 | Cn1nnc2c(C(N)=O)ncn2c1=O [TMZ, Temozolomide] |  |  |  |  |  |  | maintained normal body weight
